In one assay the test system is Ehrlich. Put plainly: (§1) Evaluated for the inhibition of cell-free gelation in Ehrlich Ascites tumor extracts. The assay is classed as functional. The note with it: Mus musculus, read-out: ID50 (the source's name).
In the case of `C=C1C(C)C2C(Cc3ccccc3)NC(=O)C23C(OC(C)=O)/C=C\C(C)(O)C(=O)C(C)C/C=C/C3C1O` (configuration not stated), the IC50 was 0.21 µM.
Turning to `CC(=O)OC1/C=C\C(C)(O)C(=O)C(C)C/C=C/C2C(O)C(CI)=C(C)C3C(Cc4ccccc4)NC(=O)C123` (configuration not stated), the IC50 came to 0.6 µM.
Take `CC(=O)OC1/C=C\C(C)(O)C(=O)C(C)C/C=C/C2C(O)C(CN=[N+]=[N-])=C(C)C3C(Cc4ccccc4)NC(=O)C123` (configuration not stated): the IC50 came out at 0.88 µM.
For the compound `CC(=O)OC1/C=C\C(C)(O)C(=O)C(C)C/C=C/C2C(O)C(C)=C(C)C3C(Cc4ccccc4)NC(=O)C123` (configuration not stated), the IC50 was determined as 0.35 µM.
For the compound `CC(=O)OC1/C=C\C(C)(O)C(=O)C(C)C/C=C/C2C(O)C(CBr)=C(C)C3C(Cc4ccccc4)NC(=O)C123` (configuration not stated), the IC50 amounted to 0.74 µM.

The species entered for another assay is Mus musculus. Described as §1. In kind it is functional.
Conditions: not given
`CC(=O)OC1/C=C\C(C)(O)C(=O)C(C)C/C=C/C2C(O)C(CC#N)=C(C)C3C(Cc4ccccc4)NC(=O)C123` (configuration not stated) registered an ID50 of 7.7 µM.
In turn, `CC(=O)OC1/C=C\C(C)(O)C(=O)C(C)C/C=C/C2C(O)C(Br)(CBr)C(C)C3C(Cc4ccccc4)NC(=O)C123` (configuration not stated) had an ID50 of 4.5 µM.

The record behind these values is ChEMBL document CHEMBL1122072, “Structure-activity correlations of cytochalasins. Novel halogenated and related cytochalasin C and D derivatives” (1982).
